Measurements: ChEMBL document CHEMBL4811216, “Chemotherapy for human schistosomiasis: how far have we come? What's new? Where do we go from here?” (RSC Med Chem, 2020)

How the values were obtained:
[1] = tested on: Schistosoma mansoni; assay: Antischistosomal activity against Schistosoma mansoni incubated for 72 hrs by microscopic method; format: functional, organism-based
[2] = molecular target: HDAC1 (histone deacetylase 1) (Homo sapiens, UniProt Q13547); assay: Inhibition of human HDAC1 using Z-Lys(Ac)-AMC as substrate at 1 uM by fluorimetric method relative to control; conditions: HDAC1 enzyme, probe Z-Lys(Ac)-AMC
Sequence of HDAC1 (histone deacetylase 1) (Q13547 whole entry): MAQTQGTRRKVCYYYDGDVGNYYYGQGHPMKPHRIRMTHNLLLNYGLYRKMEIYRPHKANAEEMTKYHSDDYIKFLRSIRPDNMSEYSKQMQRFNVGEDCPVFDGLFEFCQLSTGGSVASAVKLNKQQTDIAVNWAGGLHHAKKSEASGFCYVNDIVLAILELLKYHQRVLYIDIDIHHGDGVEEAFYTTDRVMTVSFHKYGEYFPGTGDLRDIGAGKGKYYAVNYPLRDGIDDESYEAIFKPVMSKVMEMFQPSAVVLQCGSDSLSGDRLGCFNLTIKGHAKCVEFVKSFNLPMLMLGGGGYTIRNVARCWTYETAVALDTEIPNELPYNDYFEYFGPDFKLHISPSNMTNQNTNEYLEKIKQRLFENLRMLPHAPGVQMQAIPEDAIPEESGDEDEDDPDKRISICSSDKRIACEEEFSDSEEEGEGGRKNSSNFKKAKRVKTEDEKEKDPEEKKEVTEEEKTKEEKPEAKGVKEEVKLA

[3] = tested on: Schistosoma mansoni; assay: Antischistosomal activity against Schistosoma mansoni NTS assessed as worm mortality at 10 uM measured up to 72 hrs by microscopic method relative to control; format: functional; conditions: time hrs <=72
[4] = tested on: Schistosoma mansoni; assay: Antischistosomal activity against adult Schistosoma mansoni assessed as worm mortality at 10 uM measured up to 72 hrs by microscopic method relative to control; format: functional; conditions: time hrs <=72
[5] = tested on: Schistosoma mansoni; assay: Antischistosomal activity against adult Schistosoma mansoni measured up to 72 hrs by microscopic method; format: functional, organism-based
[6] = tested on: Schistosoma haematobium; assay: Antischistosomal activity against Schistosoma haematobium at 10 uM measured after 72 hrs relative to control; format: functional
[7] = tested on: Schistosoma mansoni; assay: microbe, parasite or virus in culture; conditions: Liberian, 72 h
Description: Antischistosomal activity against Schistosoma mansoni Liberian NTS incubated for 72 hrs by microscopic method

[8] = tested on: Schistosoma mansoni; assay: microbe, parasite or virus in culture; conditions: 72 h
Description: Antischistosomal activity against Schistosoma mansoni incubated for 72 hrs by inverted microscopic method

N#Cc1c(C(F)(F)F)cc(NCc2ccc(F)cc2)n2c1nc1cc(Cl)c(Cl)cc12
IC50 [1]: 200 nM

O=C(NO)c1cccc(C(=O)NOCc2cccc3ccccc23)c1
inhibition at 1 µM [2]: < 10%

N#Cc1c(C(F)(F)F)cc(Nc2ccccc2)n2c1nc1ccccc12
mortality at 10 µM [3]: > 70%
mortality at 10 µM [4]: > 60%
IC50 [5]: 200 nM

CC(Nc1cc(C(F)(F)F)cc2nc3cc(Cl)c(Cl)cc3n12)c1ccc(S(C)(=O)=O)cc1 (stereo not given)
IC50 [1]: 200 nM

CN(C)CCNc1nc2ccc(Nc3cc(C(F)(F)F)c(C#N)c4nc5ccccc5n34)cc2o1
mortality at 10 µM [3]: > 70%
mortality at 10 µM [4]: > 60%
IC50 [5]: 200 nM

Cn1c(=O)c2c(S(C)(=O)=O)snc2n(C)c1=O
Activity [6]: 75.4%
IC50 [7]: 800 nM
IC50 [8]: 4700 nM

N#Cc1c(C(F)(F)F)cc(NCc2cccs2)n2c1nc1cc(Cl)c(Cl)cc12
IC50 [1]: 200 nM

CCNCCNc1cc(C2CCCC2)c(C#N)c2nc3ccccc3n12
mortality at 10 µM [3]: > 70%
IC50 [5]: 200 nM

CCNCCNc1cc(-c2ccc(C(F)(F)F)cc2)c(C#N)c2nc3cccc(Br)c3n12
mortality at 10 µM [3]: > 70%
IC50 [5]: 200 nM

O=C(NO)c1cccc(C(=O)NOCc2ccc(F)c(F)c2)c1
inhibition at 1 µM [2]: < 10%

N#Cc1c(C(F)(F)F)cc(Nc2cnccn2)n2c1nc1ccccc12
IC50 [1]: 200 nM
mortality at 10 µM [3]: > 70%
mortality at 10 µM [4]: > 60%
IC50 [5]: 200 nM

N#Cc1c(C(F)(F)F)cc(Nc2ccc(CN3CCOCC3)cc2)n2c1nc1ccccc12
mortality at 10 µM [3]: > 70%
mortality at 10 µM [4]: > 60%
IC50 [5]: 200 nM

COc1ncnc(Nc2cc(C(F)(F)F)c(C#N)c3nc4ccccc4n23)c1OC
IC50 [1]: 200 nM
mortality at 10 µM [3]: > 70%
mortality at 10 µM [4]: > 60%
IC50 [5]: 200 nM

COc1cccc(-n2nnnc2S(C)(=O)=O)c1
Activity [6]: 87.7%
IC50 [7]: 900 nM
IC50 [8]: 6800 nM

N#Cc1ccc(S(=O)(=O)Nc2cc(C(F)(F)F)cc3nc4cc(Cl)c(Cl)cc4n23)cc1
IC50 [1]: 200 nM

N#Cc1c(-c2ccc(C(F)(F)F)cc2)cc(NC2CCC(N)CC2)n2c1nc1cc(Cl)cc(Cl)c12 (stereo not given)
mortality at 10 µM [3]: > 70%
IC50 [5]: 200 nM

CC(C)=CCC/C(C)=C\CNCCNC1C2CC3CC(C2)CC1C3 (stereo not given)
Activity [6]: 82.5%
IC50 [7]: 2900 nM
IC50 [8]: 4900 nM

CCNCCNc1cc(-c2ccc(C(F)(F)F)cc2)c(C#N)c2nc3c(Cl)cc(Cl)cc3n12
mortality at 10 µM [3]: > 70%
IC50 [5]: 200 nM

O=C(NO)c1cccc(C(=O)NOCCCc2ccccc2)c1
inhibition at 1 µM [2]: < 10%

N#Cc1c(C(F)(F)F)cc(Nc2ccc(OC(F)(F)F)cc2)n2c1nc1cc(Cl)c(Cl)cc12
IC50 [1]: 200 nM

N#Cc1ccc(Nc2cc(C(F)(F)F)c(C#N)c3nc4ccccc4n23)cc1
mortality at 10 µM [3]: > 70%
mortality at 10 µM [4]: > 60%
IC50 [5]: 200 nM

CNc1nnc(Sc2cnn(-c3ccccc3)c(=O)c2Cl)s1
Activity [6]: 100%
IC50 [7]: 400 nM
IC50 [8]: 2500 nM

COc1ccc(Nc2cc(C(F)(F)F)c(C#N)c3nc4ccccc4n23)cc1
mortality at 10 µM [3]: > 70%
mortality at 10 µM [4]: > 60%
IC50 [5]: 200 nM

CCNCCNc1cc(-c2ccc(C(F)(F)F)cc2)c(C#N)c2nc3cc(Cl)ccc3n12
mortality at 10 µM [3]: > 70%
IC50 [5]: 200 nM

CCNCCNc1cc(C2CCCCC2)c(C#N)c2nc3ccccc3n12
mortality at 10 µM [3]: > 70%
IC50 [5]: 200 nM

N#Cc1c(C(F)(F)F)cc(Nc2ccnc(F)c2)n2c1nc1ccccc12
mortality at 10 µM [3]: > 70%
mortality at 10 µM [4]: > 60%
IC50 [5]: 200 nM

CCN(CC)CCCC(C)Nc1cc(-c2ccc(C(F)(F)F)cc2)c(C#N)c2nc3ccccc3n12 (stereo not given)
mortality at 10 µM [3]: > 70%
IC50 [5]: 200 nM

N#Cc1c(C(F)(F)F)cc(Nc2ccc(OC(F)(F)F)cc2)n2c1nc1ccccc12
IC50 [1]: 200 nM

Cc1csc(Nc2cc(C(F)(F)F)c(C#N)c3nc4ccccc4n23)n1
mortality at 10 µM [3]: > 70%
mortality at 10 µM [4]: > 60%
IC50 [5]: 200 nM

O=C(Nc1ccc(C(F)(F)F)c(C(F)(F)F)c1)c1cc(Cl)ccc1O
Activity [6]: 100%
IC50 [7]: 200 nM
IC50 [8]: 2100 nM

Cc1cc(C)cc(CONC(=O)c2cccc(C(=O)NO)c2)c1
inhibition at 1 µM [2]: < 10%

CCNCCNc1cc(-c2ccc(C(F)(F)F)cc2)c(C#N)c2nc3ncccc3n12
mortality at 10 µM [3]: > 70%
IC50 [5]: 200 nM

CN1CCC(Oc2cc(-c3ccc(C(F)(F)F)cc3)c(C#N)c3nc4ccccc4n23)CC1
mortality at 10 µM [3]: > 70%
IC50 [5]: 200 nM

N#Cc1c(C(F)(F)F)cc(Nc2cccc(OC(F)(F)F)c2)n2c1nc1ccccc12
IC50 [1]: 200 nM

Clc1ccc2c(N3CCNCCN(c4ccnc5cc(Cl)ccc45)CCNCC3)ccnc2c1
IC50 [1]: 1600 nM

c1ccc(Oc2ccc(-c3cncc(-c4ccc5[nH]ccc5c4)n3)cc2)cc1
Activity [6]: 75.4%
IC50 [7]: 2200 nM
IC50 [8]: 3400 nM

O=S(=O)(Nc1cc(C(F)(F)F)cc2nc3cc(Cl)c(Cl)cc3n12)c1ccc(OC(F)(F)F)cc1
IC50 [1]: 200 nM

N#Cc1c(C(F)(F)F)cc(Nc2ccccc2OC(F)(F)F)n2c1nc1ccccc12
IC50 [1]: 200 nM

O=C(NO)c1cccc(C(=O)NOCc2cccc(Cl)c2Cl)c1
inhibition at 1 µM [2]: < 10%

CCNCCNc1cc(-c2cccc(C(F)(F)F)c2)c(C#N)c2nc3ccccc3n12
mortality at 10 µM [3]: > 70%
IC50 [5]: 200 nM

CCNCCNc1cc(-c2ccc(C(F)(F)F)cc2)c(C#N)c2nc3cc(Cl)c(Cl)cc3n12
mortality at 10 µM [3]: > 70%
IC50 [5]: 200 nM

N#Cc1c(-c2ccc(C(F)(F)F)cc2)cc(NCCn2ccnc2)n2c1nc1ccccc12
mortality at 10 µM [3]: > 70%
IC50 [5]: 200 nM

CNC1CCN(c2cc(-c3ccc(C(F)(F)F)cc3)c(C#N)c3nc4ccccc4n23)C1 (stereo not given)
mortality at 10 µM [3]: > 70%
IC50 [5]: 200 nM

O=C(NO)c1cccc(C(=O)NNc2ccccc2)c1
inhibition at 1 µM [2]: < 10%

N#Cc1c(C(F)(F)F)cc(NCc2ccccn2)n2c1nc1cc(Cl)c(Cl)cc12
IC50 [1]: 200 nM

Nc1nc(NCC2CCC(CNS(=O)(=O)c3ccc4ccccc4c3)CC2)nc2ccccc12 (stereo not given)
IC50 [7]: 600 nM
IC50 [8]: 2000 nM

Cc1ccc(CNc2cc(C(F)(F)F)c(C#N)c3nc4cc(Cl)c(Cl)cc4n23)cc1
IC50 [1]: 200 nM

N#Cc1c(C(F)(F)F)cc(Nc2ccc3nc(NCCN4CCCC4)oc3c2)n2c1nc1ccccc12
mortality at 10 µM [3]: > 70%
mortality at 10 µM [4]: > 60%
IC50 [5]: 200 nM

O=C(NO)c1cccc(C(=O)NOCCc2ccccc2)c1
inhibition at 1 µM [2]: < 10%

CS(=O)(=O)c1ccc(Nc2cc(C(F)(F)F)c(C#N)c3nc4ccccc4n23)cc1
mortality at 10 µM [3]: > 70%
mortality at 10 µM [4]: > 60%
IC50 [5]: 200 nM

N#Cc1c(C(F)(F)F)cc(NCc2ccco2)n2c1nc1cc(Cl)c(Cl)cc12
IC50 [1]: 200 nM

Cc1ccc(CONC(=O)c2cccc(C(=O)NO)c2)cc1
inhibition at 1 µM [2]: < 10%

FC(F)(F)Oc1ccc(Nc2cc(C(F)(F)F)cc3nc4ccccc4n23)cc1
IC50 [1]: 200 nM

N#Cc1c(C(F)(F)F)cc(NCc2ccc(OC(F)(F)F)cc2)n2c1nc1cc(Cl)c(Cl)cc12
IC50 [1]: 200 nM

N#Cc1c(C(F)(F)F)cc(NCc2cccc(F)c2)n2c1nc1cc(Cl)c(Cl)cc12
IC50 [1]: 200 nM

N#Cc1c(C(F)(F)F)cc(NCc2ccc(F)cc2)n2c1nc1cc(Cl)cc(Cl)c12
IC50 [1]: 200 nM

CCNCCNc1cc(-c2ccc(C(F)(F)F)cc2)c(C#N)c2nc3ccccc3n12
mortality at 10 µM [3]: > 70%
IC50 [5]: 200 nM

CCNCCNc1cc(-c2ccc(C(F)(F)F)cc2)c(C#N)c2nc3cccc(Cl)c3n12
mortality at 10 µM [3]: > 70%
IC50 [5]: 200 nM

CCNCCNc1cc(-c2ccc(Cl)c(Cl)c2)c(C#N)c2nc3ccccc3n12
mortality at 10 µM [3]: > 70%
IC50 [5]: 200 nM

CN1CCC(Nc2cc(-c3ccc(C(F)(F)F)cc3)c(C#N)c3nc4cc(Cl)c(Cl)cc4n23)CC1
mortality at 10 µM [3]: > 70%
IC50 [5]: 200 nM

O=C(NO)c1cccc(C(=O)NOCc2ccccc2)c1
inhibition at 1 µM [2]: < 10%
